Data: patent US20070015223A1, “Method of detecting substance to be analyzed” (OLYMPUS CORPORATION, priority 2003, published 2007)

Assays:
[1] = test system: genes to be analyzed in rat liver; test: microarray expression level ratio, tyramide reaction time adjusted by GAPDH spot signal intensity (Example 7, Table 1)
[2] = test system: genes to be analyzed in rat liver; test: microarray expression level ratio, control experiment with fixed tyramide reaction time of 5 minutes (Table 3)
[3] = test system: genes to be analyzed in rat liver; test: microarray expression level ratio, sample amount quantified and matched (Example 5, Table 2)
[4] = Phenobal group rat liver, aRNA 400 ng, Deposition Time 2 min.
[5] = rat liver, aRNA 400 ng vs 100 ng, Deposition Time 2 min. vs 7 min.
[6] = Phenobal group rat liver, aRNA 400 ng, Deposition Time 5 min.
[7] = rat liver, aRNA 400 ng vs 100 ng, Deposition Time 5 min. both, corrected using the internal standard gene
[8] = Phenobal group rat liver, aRNA 200 ng, Deposition Time 5 min.
[9] = rat liver, aRNA 200 ng both, Deposition Time 5 min. both

CCC1(c2ccccc2)C(=O)NC(=O)NC1=O [Phenobal, phenobarbital]
Raw Data (spot signal intensity), Gene A [1, 4]: 680 | Raw Data (spot signal intensity), Gene B [1, 4]: 750 | Raw Data (spot signal intensity), Gene C [1, 4]: 250 | Raw Data (spot signal intensity), Gene D [1, 4]: 2800 | Raw Data (spot signal intensity), Gene E [1, 4]: 500 | Raw Data (spot signal intensity), Gene F [1, 4]: 60 | Raw Data (spot signal intensity), Gene GAPDH ([1]; internal standard gene, Phenobal group rat liver, aRNA 400 ng, Deposition Time 2 min.): 2500 | Ratio (Phenobal/Control), Gene GAPDH ([1]; internal standard gene, rat liver, aRNA 400 ng vs 100 ng, Deposition Time 2 min. vs 7 min.): 1.0 | Ratio (Phenobal/Control), Gene A [1, 5]: 1.8 | Ratio (Phenobal/Control), Gene B [1, 5]: 2.8 | Ratio (Phenobal/Control), Gene C [1, 5]: 0.5 | Ratio (Phenobal/Control), Gene D [1, 5]: 1.9 | Ratio (Phenobal/Control), Gene E [1, 5]: 0.2 | Ratio (Phenobal/Control), Gene F [1, 5]: 1.2 | Raw Data (spot signal intensity), Gene a [2, 6]: 1700 | Raw Data (spot signal intensity), Gene b [2, 6]: 1875 | Raw Data (spot signal intensity), Gene c [2, 6]: 625 | Raw Data (spot signal intensity), Gene d [2, 6]: 4095 | Raw Data (spot signal intensity), Gene e [2, 6]: 1250 | Raw Data (spot signal intensity), Gene f [2, 6]: 150 | Raw Data (spot signal intensity), Gene GAPDH ([2]; internal standard gene, Phenobal group rat liver, aRNA 400 ng, Deposition Time 5 min.): 4095 | Ratio (Phenobal/Control), Gene GAPDH ([2]; internal standard gene, rat liver, aRNA 400 ng vs 100 ng, Deposition Time 5 min. both): 1.0 | Ratio (Phenobal/Control), Gene a [2, 7]: 2.6 | Ratio (Phenobal/Control), Gene b [2, 7]: 4.1 | Ratio (Phenobal/Control), Gene c [2, 7]: 0.7 | Ratio (Phenobal/Control), Gene d [2, 7]: 1.6 | Ratio (Phenobal/Control), Gene e [2, 7]: 0.2 | Ratio (Phenobal/Control), Gene f [2, 7]: 1.6 | Raw Data (spot signal intensity), Gene a [3, 8]: 650 | Raw Data (spot signal intensity), Gene b [3, 8]: 745 | Raw Data (spot signal intensity), Gene c [3, 8]: 255 | Raw Data (spot signal intensity), Gene d [3, 8]: 2900 | Raw Data (spot signal intensity), Gene e [3, 8]: 550 | Raw Data (spot signal intensity), Gene f [3, 8]: 65 | Raw Data (spot signal intensity), Gene GAPDH ([3]; internal standard gene, Phenobal group rat liver, aRNA 200 ng, Deposition Time 5 min.): 2500 | Ratio (Phenobal/Control), Gene GAPDH ([3]; internal standard gene, rat liver, aRNA 200 ng both, Deposition Time 5 min. both): 1.0 | Ratio (Phenobal/Control), Gene a [3, 9]: 1.8 | Ratio (Phenobal/Control), Gene b [3, 9]: 2.6 | Ratio (Phenobal/Control), Gene c [3, 9]: 0.5 | Ratio (Phenobal/Control), Gene d [3, 9]: 2.1 | Ratio (Phenobal/Control), Gene e [3, 9]: 0.2 | Ratio (Phenobal/Control), Gene f [3, 9]: 1.1
